Earlier results on 3 compounds are cited in article PMC12120261, “Responsiveness of different MET tumour alterations to type I and type II MET inhibitors” (Clinical and Translational Medicine, 2025).

Molecules are shown by their SMILES.

The subject of the data set is MET G1163R. Also noted: method as in PMID 31279006.
Regarding `CNC(=O)c1ccc(-c2cnc3ncc(Cc4ccc5ncccc5c4)n3n2)cc1F` [capmatinib], the “sensitivity of the solvent front G1163R mutation” value (shortened to “sensitivity”) is “remains sensitive”. Turning to `C[C@@H](Oc1cc(-c2cnn(C3CCNCC3)c2)cnc1N)c1c(Cl)ccc(F)c1Cl` [crizotinib, Crizotinib], the “sensitivity” value is recorded as “conferring resistance”. As for `C[C@@H](c1ccc2nccn2c1)n1nnc2ncc(-c3cnn(C)c3)nc21` [savolitinib], the “sensitivity” value is “remains sensitive”.
